Series [1] has as its system histamine-induced skin reactions. Kind of series: Effect on histamine-induced skin reactions in guinea pigs. Type of series: in vivo, guinea pig. The settings on record: 1 hour before intradermal histamine. As for the experimental part: Effect on Histamine-induced Skin Reactions in Guinea Pigs
(§1) Male Hartley guinea pigs weighing about 500 g were used. After the dorsal hair was shaved under ether anesthesia, 1 ml of a 2.5% pontamine sky blue solution was injected intravenously administered, and then 0.1 ml of histamine at 3 μg/ml was injected intradermally into 2 sites (left and right) in the back. Thirty minutes after the injection of histamine, animals were killed by bleeding and the skin was removed. Two perpendicular diameters (mm) of each blue spot on the inside of the skin were measured and multiplied; the mean for the two products was taken as the microvascular permeability index. Test compounds were suspended in a 5% gum arabic solution and orally administered in a volume of 0.2 ml/100 g body weight 1 hour before histamine administration. Animals in the control group received the same volume of a 5% gum arabic solution. The suppression rate of the sample for the title reaction was calculated using Equation 1.
Inhibition (%) of histamine-induced skin reactions=100×(1−vascular permeability index in the presence of drug/vascular permeability index in control group) Equation 1
as §1, with “bleeding and he skin was” for “bleeding and the skin was”, “measured and multiplied, the mean” for “measured and multiplied; the mean”

Structures can show the parent of a compound that is named as a salt.

`CC(C)(C)c1cc2ncnn2nc1SCCOCCN1CCN(C(c2ccccc2)c2ccccc2)CC1` [Example 60A, 6-[2-[2-[4-(Diphenylmethyl)-1-piperazinyl]ethoxy]ethylthio]-7-t-butyl[1,2,4]triazolo[1,5-b]pyridazine] yielded a melting point of 106 to 108 °C. Same read-out and setting: next, `Cc1nc2ccc(NCCCN3CCC(OC(c4ccccc4)c4ccccc4)CC3)nn2n1` [Example 20A, 6-[3-[4-(Diphenylmethoxy)piperidino]propylamino]-2-methyl[1,2,4]triazolo[1,5-b]pyridazine]: 119 to 120 °C; `O=C(O)c1cc2ncnn2nc1NCCCN1CCC(OC(c2ccccc2)c2ccccc2)CC1` [Example 119A, [6-[3-[4-(Diphenylmethoxy)piperidino]propylamino][1,2,4]triazolo[1,5-b]pyridazin-7-yl]carboxylic Acid]: 207 to 209 °C; `O=C(O)c1nc2ccc(OCCCN3CCC(OC(c4ccccc4)c4ccccc4)CC3)nn2n1` [Example 123A, [6-[3-[4-(Diphenylmethoxy)piperidino]propoxy][1,2,4]triazolo[1,5-b]pyridazin-2-yl]carboxylic Acid]: 173 to 177 °C.

In turn, `CC(C)(C(=O)O)c1nc2ccc(NCCCN3CCN(C(c4ccccc4)c4ccccc4)CC3)nn2c1Cl` [Example 85A, 2-[3-Chloro-6-[3-[4-(diphenylmethyl)-1-piperazinyl]propylamino]imidazo[1,2-b]pyridazin-2-yl]-2-methylpropionic Acid] gave a melting point of 184 to 186 °C. On the same count and under the same terms, the figure for `CCOC(=O)CNC(=O)c1nc2ccc(NCCCN3CCC(OC(c4ccccc4)c4ccccc4)CC3)nn2c1C` [Example 127A, N-[6-[3-[4-(Diphenylmethoxy)piperidino]propylamino]-3-methylimidazo[1,2-b]pyridazine-2-carbonyl]glycine Ethyl Ester] is 158 to 160 °C. On to `CC(C)(C(=O)O)c1cn2nc(NCCCN3CCC(OC(c4ccccc4)c4ccccc4)CC3)ccc2n1.O.O` [Example 135A, 2-[6-[3-[4-(Diphenylmethoxy)piperidino]propylamino]imidazo[1,2-b]pyridazin-2-yl)-2-methylpropionic Acid Dihydrate], for which the “Inhibition (%) of Histamine-induced Skin Reactions, 3 mg/kg Oral Administration” value (from here on “Inhibition (%)”) in series [1] (Table 1) and in series [1] (Table 3) was 91% each time. In the case of `Cc1nc2ccc(OCCCN3CCC(OC(c4ccccc4)c4ccccc4)CC3)nn2n1` [Example 21A, 6-[3-[4-(Diphenylmethoxy)piperidino]propoxy]-2-methyl[1,2,4]triazolo[1,5-b]pyridazine], the melting point lay in the range of 134 to 136 °C. Same read-out and setting: the figure for `CCOC(=O)C(C)(C)c1cn2nc(CCCCN3CCN(C(c4ccccc4)c4ccccc4)CC3)ccc2n1` [Example 94A, Ethyl 2-[6-[4-[4-(Diphenylmethyl)-1-piperazinyl]butyl]imidazo[1,2-b]pyridazin-2-yl]-2-methylpropionate] is 105 to 106 °C. Molecule `O=C(OCCOc1ccc2ncnn2n1)N1CCC(OC(c2ccccc2)c2ccccc2)CC1` [Example 25A, 6-[2-[4-(Diphenylmethoxy)piperidinocarbonyloxy]ethoxy][1,2,4]triazolo[1,5-b]pyridazine] had a melting point of 75 to 76 °C. On the same count and under the same terms, the figure for `CC(C)(C)c1cc2ncnn2nc1OCCN1CCC(OC(c2ccccc2)c2ccccc2)CC1` [Example 15A, 7-t-Butyl-6-[2-[4-(Diphenylmethoxy)piperidino]ethoxy][1,2,4]triazolo[1,5-b]pyridazine] is 133 to 135 °C; for `O=C(O)CNC(=O)c1cn2nc(NCCCN3CCC(OC(c4ccccc4)c4ccccc4)CC3)ccc2n1` [Example 72A, N-[6-[3-[4-(Diphenylmethoxy)piperidino]propylamino]imidazo[1,2-b]pyridazine-2-carbonyl]glycine] it is 171 °C. Same read-out and setting: next, `OC(COc1ccc2ncnn2n1)CN1CCC(OC(c2ccccc2)c2ccccc2)CC1` (centres unmarked) [Example 16A, 1-[4-(Diphenylmethoxy)piperidino]-3-([1,2,4]triazolo[1,5-b]pyridazin-6-yloxy)-2-propanol]: 133 to 135 °C; `OC(CNc1ccc2ncnn2n1)CN1CCC(OC(c2ccccc2)c2ccccc2)CC1` (centres unmarked) [Example 115A, 1-[4-(Diphenylmethoxy)piperidino]-3-[([1,2,4]triazolo[1,5-b]pyridazin-6-yl)amino]-2-propanol]: 82 to 87 °C; `Cc1cc2ncnn2nc1OCCOCCN1CCN(C(c2ccccc2)c2ccccc2)CC1` [Example 47A, 6-[2-[2-[4-(Diphenylmethyl)-1-piperazinyl]ethoxy]ethoxy]-7-methyl[1,2,4]triazolo[1,5-b]pyridazine]: 71 to 72 °C.

For `COC(=O)c1cc2ncnn2nc1NCCCN1CCC(OC(c2ccccc2)c2ccccc2)CC1` [Example 118A, Methyl[6-[3-[4-(Diphenylmethoxy)piperidino]propylamino][1,2,4]triazolo[1,5-b]pyridazin-7-yl]carboxylate], the melting point fell in the range of 120 to 122 °C. On the same count and under the same terms, next, `COc1cn2nc(OCCCN3CCN(C(c4ccccc4)c4ccccc4)CC3)ccc2n1` [Example 42A, 6-[3-[4-(Diphenylmethyl)-1-piperazinyl]propoxy]-2-methoxyimidazo[1,2-b]pyridazine]: 144 to 146 °C. Same read-out and setting: next, `CC(C)c1cc2ncnn2nc1SCCOCCN1CCN(C(c2ccccc2)c2ccccc2)CC1` (as salt: hydrochloride) [Example 59A, 6-[2-[2-[4-(Diphenylmethyl)-1-piperazinyl]ethoxy]ethylthio]-7-isopropyl[1,2,4]triazolo[1,5-b]pyridazine Dihydrochloride]: 143 to 145 °C; `c1ccc(C(c2ccccc2)N2CCN(CCCNc3ccc4ncnn4n3)CC2)cc1` [Example 5A, 6-[3-[4-(Diphenylmethyl)-1-piperazinyl]propylamino][1,2,4]triazolo[1,5-b]pyridazine]: 139 to 140 °C.

For `CC(C)(C(=O)O)c1cn2nc(CCCN3CCC(OC(c4ccccc4)c4ccccc4)CC3)ccc2n1` [Example 102A, 2-[6-[3-[4-(Diphenylmethoxy)piperidino]propyl]imidazo[1,2-b]pyridazin-2-yl]-2-methylpropionic Acid], the melting point lay within 195 to 205 °C. As to `CC(C)(C(=O)O)c1cn2nc(OCCCN3CCC(OC(c4ccccc4)c4ccccc4)CC3)ccc2n1` [Example 45A], the “Inhibition (%)” value in series [1] (Table 1) was determined as 91%. Consider `Cc1cc2ncnn2nc1OCCCCCCN1CCN(C(c2ccccc2)c2ccccc2)CC1` (as salt: hydrochloride) [Example 51A, 6-[6-[4-(Diphenylmethyl)-1-piperazinyl]hexyloxy]-7-methyl[1,2,4]triazolo[1,5-b]pyridazine Dihydrochloride], for which the melting point was in the range of 170 to 172 °C.

Regarding `COc1cn2nc(OCCCN3CCC(OC(c4ccccc4)c4ccccc4)CC3)ccc2n1` [Example 41A, 6-[3-[4-(Diphenylmethoxy)piperidino]propoxy]-2-methoxyimidazo[1,2-b]pyridazine], the melting point was in the range of 133 to 135 °C. On the same count and under the same terms, the figure for `CCOC(=O)CNC(=O)c1nc2ccc(NCCCN3CCC(OC(c4ccccc4)c4ccccc4)CC3)nn2c1Cl` [Example 111A, N-[3-Chloro-6-[3-[4-(diphenylmethoxy)piperidino]propylamino]imidazo[1,2-b]pyridazine-2-carbonyl]glycine Ethyl Ester] is 178 to 180 °C. Still for that read-out and setting: the figure for `O=C(O)C1(c2cn3nc(NCCCN4CCC(OC(c5ccccc5)c5ccccc5)CC4)ccc3n2)CC1` [Example 100A, 1-[6-[3-[4-(Diphenylmethoxy)piperidino]propylamino]imidazo[1,2-b]pyridazin-2-yl]cyclopropanecarboxylic Acid] is 115 to 117 °C; for `CC(C)(C)c1cc2ncnn2nc1OCCOCCN1CCN(C(c2ccccc2)c2ccccc2)CC1` (as salt: hydrochloride) [Example 62A, 7-t-Butyl-6-[2-[2-[4-(Diphenylmethyl)-1-piperazinyl]ethoxy]ethoxy][1,2,4]triazolo[1,5-b]pyridazine Dihydrochloride] it is 150 to 152 °C. In turn, `CCOC(=O)CNC(=O)c1cn2nc(NCCCN3CCC(OC(c4ccccc4)c4ccccc4)CC3)ccc2n1` [Example 70A, N-[6-[3-[4-(Diphenylmethoxy)piperidino]propylamino]imidazo[1,2-b]pyridazine-2-carbonyl]glycine Ethyl Ester] returned a melting point of 172 to 174 °C. With `O=C(CCN1CCC(OC(c2ccccc2)c2ccccc2)CC1)Nc1ccc2ncnn2n1` [Example 18A], in series [1] (Table 1), the “Inhibition (%)” value worked out at 91%.

What is called melting point is the temperature of the solid-liquid transition.
